Source: patent publication US9217743B2, “Screening method utilizing thalidomide-targeting factor” (Tokyo Institute of Technology, priority 2009, dated 2015)
“Also recorded” adds a separate entry of the source.

Tests used:
CRBN-FLAG = biological target: T1, CRBN-FLAG (Homo sapiens, UniProt Q96SW2); test: In vitro binding assay of purified recombinant protein with thalidomide-immobilized beads
T1 construct: made in house; host or cells: Sf9 insect cells (Bac-to-bac baculovirus)
Excerpt: (§1) Recombinant CRBN-FLAG and DDB1-V5-His proteins were expressed in the insect Sf9 cells by using the Bac-to-bac baculovirus expression system (Invitrogen) and purified using anti-FLAG M2 agarose beads (Sigma) and Ni-NTA agarose beads (Qiagen), respectively. Purified CRBN-FLAG and/or DDB1-V5-His were mixed with thalidomide-immobilized beads, and the bound proteins were eluted with an SDS sample buffer. For analysis of CRBN-deletion mutant, GST-fused CRBN and its mutants were expressed in E. coli BL21 and purified using glutathione Sepharose (GE Healthcare). CRBN mutants were overexpressed in 293T cells by transfection using Lipofectamine 2000 (Invitrogen). Subsequent binding assays were carried out as described above.

DDB1-V5-His = biological target: T2, DDB1-V5-His (Homo sapiens, UniProt Q16531); test: as above
T2 construct: made in house; host or cells: Sf9 insect cells (Bac-to-bac baculovirus)
Excerpt: as §1

CRBN W386A = biological target: T3, CRBN W386A (Homo sapiens, UniProt Q96SW2, W386A); test: Binding of CRBN point mutant from 293T extracts to thalidomide-immobilized beads
T3 construct: expressed in transfected cells; host or cells: 293T
Excerpt: (§2) First, thalidomide-binding region was investigated by using the N-terminal and C-terminal deletion mutants. […] The present inventors investigated whether this CRBN YW/AA functionally active in the cells. The subcellular localization of this mutant was indistinguishable from that of wild-type CRBN.
as §1

CRBN Y384A = biological target: T4, CRBN Y384A (Homo sapiens, UniProt Q96SW2, Y384A); test: as above
T4 construct: expressed in transfected cells; host or cells: 293T
Excerpt: as §2, §1

[1] = biological target: T5, CRBN-containing E3 complex (Homo sapiens, UniProt Q96SW2); test: Autoubiquitination in live cells, 293T cells stably expressing FH-CRBN; assay type: cell-based; details: thalidomide 10, 30 and 100 μM, with MG132
T5 construct: expressed in transfected cells; host or cells: 293T stably expressing FH-CRBN
Method: (§3) The present inventors examined whether thalidomide would inhibit ubiquitination of the CRBN-containing E3 complex. 293T cells stably expressing FH-CRBN or FH-CRBN YW/AA were treated with MG132 and thalidomide (10, 30, and 100 μM) at similar concentration relative to the therapeutic doses used in human.
(§4) The assays were performed as described (Cited Literature 38). 293T cells stably expressing FH-CRBN or its mutant were treated with 10 μM MG132 or DMSO (vehicle) for three hours. The cells lysate were prepared using RIPA buffer containing 25 μM MG132 and 10 mM N-ethylmaleimide. FH-CRBN was immunoprecipitated and analyzed as described above. Various concentrations of thalidomide were added to cells one hour prior to MG132 treatment.

CRBN YW/AA = biological target: T6, CRBN YW/AA (Homo sapiens, UniProt Q96SW2, W386A/Y384A); test: Autoubiquitination in live cells, 293T cells stably expressing FH-CRBN YW/AA; assay type: cell-based; details: thalidomide 10, 30 and 100 μM, with MG132
T6 construct: expressed in transfected cells; host or cells: 293T stably expressing FH-CRBN YW/AA
Method: as §3, §4

zebrafish embryos = test: Zebrafish embryo development, pectoral fins and otic vesicles; assay type: in vivo, zebrafish (Danio rerio)
Excerpt: To elucidate possible effects of thalidomide on zebrafish development, dechorionated embryos were transferred to media containing various concentrations of thalidomide. […] More specifically, formation of the endoskeletal disc of the pectoral fin was inhibited at 75 hpf (FIG. 4A), and the size of otic vesicles at 30 hpf was reduced (FIG. 4B). Retardation of pectoral fin development was also detected at 48-hpf embryos (FIGS. 5C and D). Recent studies have reported that development of pectoral fins and otic vesicles in teleosts (including zebrafish) shares common molecular mechanisms with the limb and ear development in tetrapods (Cited Literatures 24 to 26).
Thalidomide was dissolved in DMSO and added to a final concentration of 400 μM to E3 medium prewarmed to […]. Zebrafish embryos were dechorionated prior to thalidomide as follows: At 2 hpf, the embryos were incubated in E3 medium containing 2 mg/ml Protease type XIV (Sigma) for three minutes and then washed five times with the medium. After dechorionation, embryos were immediately transferred to E3 medium containing thalidomide, and observed for three days. The thalidomide-containing medium was exchanged every 12 hours.
Extracellular matrices associated with chondrocytes were stained with Alcian blue (Cited Literature 40). Zebrafish embryos were fixed in 3.7% neutral buffered formaldehyde for overnight. The next day, the embryos were washed with 100% ethanol and rehydrated with PBS. Subsequently, the embryos were incubated with a solution of 0.05% trypsin in saturated sodium tetraborate for one to three hours. Pigmentation of fish was removed by 3% hydrogen peroxide/1% potassium hydroxide solution. Stained embryos were stored in 70% glycerol-containing PBS solution.
Microinjection into one-cell stage embryos was carried out in accordance with Cited Literature 39. The present inventors used a nitrogen gas-pressure microinjector (IM 300, Narishige Co., Ltd.) for injection. Capped mRNAs were prepared in vitro using the mMESSAGE mMACHINE in vitro transcription kit (Ambion).
Zebrafish embryos at 48 hpf were anesthetized with 1% methylcellulose and 0.003% 3-amino benzoic acid ethyl ester (Sigma) and mounted on a slide glass. Then, otic vesicles of ten embryos randomly selected from each sample were photographed. The size was measured using the NIH image J software and compared to that of control. Average sizes and standard errors were calculated, and p-values were determined by the Mann-Whitney U test.

DDB1 and CRBN = biological target: T7, DDB1 and CRBN (Homo sapiens, UniProt Q96SW2); test: Affinity purification from HeLa cell extracts with thalidomide-immobilized beads, competition by free thalidomide; assay type: binding; details: 0.3 mM free thalidomide added to HeLa extracts before the beads
T7 construct: endogenous in cells; host or cells: HeLa
Method: To purify thalidomide-binding proteins, the present inventors performed affinity purification using FG beads, which are magnetic particles (Cited Literature 9). FR259625, a thalidomide derivative in which a carboxyl group is added was covalently immobilized on the FG beads (FIG. 6), and mixed and incubated with human HeLa cell extracts. […] The 127 and 55 kDa proteins were analyzed by mass spectrometry and identified as DDB1 and CRBN, respectively (Table 1). Identities of these proteins were also confirmed by Western blotting (immunoblotting) (FIG. 1A), and further, these proteins were isolated similarly as thalidomide binding protein from extracts of various cell types (FIG. 7). To determine whether this interaction with thalidomide is direct, the present inventors purified recombinant proteins. CRBN-FLAG, but not DDB1-V5-His, bound to thalidomide-immobilized beads (FIG. 1B).

CRBN = CRBN (Homo sapiens, UniProt Q96SW2); test: Elution of CRBN from thalidomide-immobilized beads by test compound, Western blotting

O=C1CCC(N2C(=O)c3ccccc3C2=O)C(=O)N1 (stereo not drawn) [thalidomide]
binding of thalidomide to recombinant CRBN-FLAG (CRBN-FLAG): directly binds
binding of thalidomide to recombinant DDB1-V5-His (DDB1-V5-His): indirectly via CRBN
thalidomide binding of CRBN W386A (CRBN W386A): defective
thalidomide binding of CRBN Y384A (CRBN Y384A): defective
autoubiquitination of wild-type CRBN [1]: potently inhibited; also recorded: suppressed
autoubiquitination of CRBN YW/AA (CRBN YW/AA): not affected
size of otic vesicles, of the control size (zebrafish embryos; 400 μM thalidomide, uninjected embryos): 64.5%
size of otic vesicles (zebrafish embryos; 30 hpf): reduced
formation of the endoskeletal disc of the pectoral fin (zebrafish embryos; 75 hpf): inhibited
development of pectoral fins and otic vesicles (zebrafish embryos; embryos in thalidomide-containing media from 2 hpf): disturbed
size of otic vesicles, of the control size (zebrafish embryos; thalidomide, embryos overexpressing wild-type zCrbn): approximately 66%
size of otic vesicles (zebrafish embryos; thalidomide, embryos overexpressing zCrbn YW/AA): did not affect
yield of DDB1 and CRBN on the beads (DDB1 and CRBN): reduced significantly
CRBN eluted from thalidomide-immobilized beads by the compound (CRBN; 293T cell extracts, buffer containing 0.1 to 1 mM compound, one hour, Western blotting): eluted
CRBN in the eluate fraction (CRBN; Example 6, 293T extracts, elution with 1 mM compound): detected
